Experimental data reported in US20260053767A1, “Hepatoprotective Compositions And Methods” (Jemyll, Ltd., priority 2022, published 2026).
Entries after “also recorded” stand apart in the source; their conditions may differ.

Key:
[1] = test system: endothelial cells (EOMA cells); test: DNA damage in endothelial cells after oxidative insult by H2O2; format: cell-based; conditions: 6 hours, p-value >0.100
Source text: To that end, the inventors used endothelial cells (EOMA cells) and liver cells (AML-12 cells) in vitro and quantified various markers in response to exposure of the cells to environmental challenge in the presence and absence of DDA at low concentrations. Unless indicated otherwise, the DDA concentration in the in vitro experiments was 5 mcg per microliter. More specifically, the inventors measured p-H2AX protein levels as a marker for DNA damage, PGC-1α protein levels as a marker for mitochondrial biogenesis, NAMPT enzyme levels as a marker for potential for NAD+ production, and total antioxidant capacity as a marker of cellular health. In addition, the inventors also measured global SIRT activity as a gauge of activity for all SIRT enzymes, and in particular SIRT1 enzyme levels as markers for autophagy and various beneficial processes associated with a caloric restricted diet, and SIRT3 levels as markers for mitochondrial function and longevity.
In yet a further series of experiments, the inventors also sought to confirm whether or not DDDA would have a modulatory effect in endothelial cells using the same markers and experimental conditions as noted above.
Finally, the inventors also evaluated DNA damage in endothelial cells after oxidative insult by H2O2, and exemplary results are shown in FIG. 17. […] N=5-6 plates per treatment.

[2] = test system: Wistar rats; test: Study 2 (reversal): oral glucose tolerance test and HOMA-IR; format: in vivo; conditions: Study 2: 9 weeks high fat-high cholesterol diet, then 4 weeks treatment
Description: Study design: All animal procedures were approved by the Catholic University of Rome Institutional Animal Care Committee. The design of the studies is summarized in FIG. 18, Panels A and B. • Study 1: Twenty adult Wistar rats, aged 8-10 weeks, were included in the study. The rats were housed in individual cages at 22° C. with 12-h light cycles and had ad libitum access to food and water. Rats were fed a high-fat high-cholesterol diet (44% Carbohydrate, 14% Protein, 42% fat+0.2% Cholesterol) (Mucedola, Milan, IT) for four weeks in the presence or absence of 1% Dodecanedioic acid, sodium salt (w/vol) dissolved in the water (FIG. 18, Panel A). Body weight and food/water intake were monitored weekly. • Study 2: Twenty adult Wistar rats, aged 8-10 weeks, were included in the study. The rats were housed in individual cages at 22° C. with 12-h light cycles and had ad libitum access to food and water. Rats were fed a high-fat high-cholesterol diet (44% Carbohydrate, 14% Protein, 42% fat+0.2% Cholesterol) (Mucedola, Milan, IT). After nine weeks of diet, rats were randomly assigned to one of the following groups: Four weeks of high-fat high-cholesterol diet or four weeks of high-fat high-cholesterol diet and 1% Dodecanedioic acid, sodium salt (w/v) dissolved in the water FIG. 18, Panel B). Body weight and food/water intake were monitored weekly.
Oral Glucose Test Tolerance (OGTT): All animals underwent an OGTT at the end of the study. After an overnight fasting, the rats received a 50% D-glucose solution (1 g/kg body weight) by oral gavage. Blood samples were taken by tail bleeding and collected in EDTA tubes. All blood samples were immediately centrifuged, and plasma divided into appropriate subsamples and stored at −20° C. for further analysis. Blood glucose and was measured at 0, 20, 40, 60, 80, 100 and 120 minutes, while plasma insulin at 0, 60 and 120 minutes. Blood glucose levels were measured by glucometer (Accu-Chek, Roche Diagnostics Division, Grenzacherstrasse, CH). Plasma insulin was measured by ELISA (EMD Millipore Corporation, Billerica, MA), with a sensitivity of 0.1 ng/ml and an intra-and inter-assay precision of 1.9% and 7.6%, respectively.
DODA administration reverses insulin resistance and NASH: To assess if DODA could reverse the development of diet-induced insulin resistance and NASH, rats were first fed high fat high cholesterol diet for 9 weeks to develop insulin resistance and NASH. After 9 weeks of diet, DODA was administered for 4 weeks to assess insulin resistance and NASH reversal. Rats fed high fat high cholesterol diet without the administration of DODA were included as controls.
Panels A and B. • Study 1: Twenty adult Wistar rats, aged 8-10 weeks, were included in the study. The rats were housed in individual cages at 22° C. with 12-h light cycles and had ad libitum access to food and water. Rats were fed a high fat high cholesterol diet (44% Carbohydrate, 14% Protein, 42% fat+0.2% Cholesterol) for 4 weeks in the presence or absence of 1% Dodecanedioic acid, sodium salt dissolved in the water (FIG. 25, Panel A). Body weight and food/water intake were monitored weekly. • Study 2: Twenty adult Wistar rats, aged 8-10 weeks, were included in the study. The rats were housed in individual cages at 22° C. with 12-h light cycles and had ad libitum access to food and water. Rats were fed a high fat-high cholesterol diet (44% Carbohydrate, 14% Protein, 42% fat+0.2% Cholesterol). […] Body weight and food/water intake were monitored weekly. […]

Question: For `O=C(O)CCCCCCCCCCC(=O)O` [DDDA, dodecanedioic acid], which DNA damage [1] is on record?
Answer: numerically decreased DNA damage

Question: What about the “blood glucose concentrations during an oral glucose tolerance test” value ([2]; vs controls) of the same molecule?
Answer: decrease

Question: What about the “insulin resistance as assessed by HOMA-IR” value ([2]; vs controls) of the same molecule?
Answer: reverse insulin resistance

Question: And the “plasma insulin concentrations during an oral glucose tolerance test” value ([2]; vs controls)?
Answer: decrease

Question: What about the “diet-induced insulin resistance and NASH (overall, reversal)” value ([2]; listed as C12) of the same molecule?
Answer: could reverse both diet-induced insulin resistance and NASH; also recorded: reverses diet-induced insulin resistance

Question: What about the “diet-induced insulin resistance and NASH (overall, reversal)” value ([2]; listed as DODA) of the same molecule?
Answer: could reverse both diet-induced insulin resistance and NASH; also recorded: reverses diet-induced insulin resistance
